Patent US11542298B2, “Hydroxysteroid compounds, their intermediates, process of preparation, composition and uses thereof” (Epirium Bio Inc., priority 2014, dated 2023)

Key:
[1] = test system: mitochondrial oxidative phosphorylation complex I; assay: Western blot of mitochondrial oxidative phosphorylation complex I protein levels in human coronary artery endothelial cells; assay type: cell-based; settings: HCAEC, 48 h, FIG. 1a
Experimental: Cells were grown in Dulbecco's modified Eagle's media supplemented with fetal bovine serum (10%) to ˜90% confluence. Cells were treated with either vehicle (water) or incremental doses of the agent (dissolved in water) for a total of 48 h (treatment was repeated at the 24 h time point). At the end of the experiment, cells were lysed in Western blot sample buffer. A fixed amount of protein (25 micrograms) was loaded onto a polyacrylamide gel and run for 1 h to allow for the electrophoretic separation of proteins. The gel was then transferred onto a polyvinyl membrane for incubation with blocking buffer prior to exposure to the 1ry antibody (anti-human complex […]. Following a 1 h incubation at room temperature the membrane was washed and then exposed to the 2ry antibody for 1 h. after a second set of washes the membrane was incubated with an enhanced-chemiluminescence kit solution followed by exposure to X-ray film. The image obtain was used to quantitative changes in complex I protein levels as a function of compound dose. To normalize for loading differences the membrane was re-incubated (as above) with the subunit 6 ribosomal protein (S6RP) and exposed to X-ray film. Changes in values for complex I levels are normalized to differences in S6RP levels. All data are normalized to the values noted for cells treated with vehicle only (=100%). The results are presented at FIG. 1 a.

AMP KINASE = AMP KINASE activation, cell based ELISA in Hepatoma (Hep 2) liver cells; settings: 0.1 nM, 30 m, over baseline of 100 (DMSO control)
Experimental: AMP KINASE activation potential of the compounds was evaluated using cell based ELISA·Hepatoma (Hep 2) liver cells were maintained in a T 75 culture flask-containing 25 mM DMEM+10% fetal calf serum. The cells were maintained in a T 75 culture flask-containing medium (DMEM+10% fetal calf serum). On reaching a confluence of 70 to 80%, the cells were seeded in a 96 well plate at a density of 40,000 cells per well in 25 mM DMEM+10% FCS medium. The plates were then incubated at 37° C. with 5% CO2 for 24 hours. Various concentrations of drugs were prepared in DMSO and diluted to required concentration with the medium and incubated at 37° C. with 5% CO2 for 30 min and 1 h for Epicatechin analogs and 11-BHP analogs respectively. Metformin was used as positive control·Cells were fixed with 4% formaldehyde for 30 minutes at room temperature and washed three times with PBS containing 0.1% Triton X-100. Endogenous peroxidase was quenched with 1% H2O2 in PBS-T (0.1% Tween 20) for 30 minutes and washed three times in PBS-T. Cells were blocked with 1% BSA in PBS-T for 1 hour. The cells were incubated with 1:1000 dilution primary antibody (Phospho-AMPKα ([…]) Rabbit mAb, Cell Signaling in PBS-T containing 5% BSA at 4° C. overnight. The cells were then washed three times with PBS-T for 5 minutes and incubated with 1:1000 dilution secondary antibody (Anti-rabbit IgG, HRP-linked Antibody, Cell Signaling) in PBS-T with 1% BSA for 1 hour at RT·Cells were washed three times with PBS-T for 5 minutes The cells were incubated with 100 μl TMB substrate solution for 30 minutes and the reaction was stopped with 100 μl of 2N H2SO4. Then the plate was read at 450 nm using ELISA plate reader and absorbance recorded. % activity was calculated using DMSO control as 100%.

HepG2 cells [2] = assay: Mitochondrial DNA content in HepG2 cells; assay type: cell-based; settings: HepG2, 24 hours, FIG. 3b
Source text: The results are depicted at FIGS. 3a and 3b.

HepG2 cells [3] = assay: Intracellular glucose production (de novo gluconeogenesis) in HepG2 cells; assay type: cell-based; settings: HepG2, FIG. 5
Experimental: (§1) HepG2 cells were exposed to serum-free media for 3 hours and then exposed to gluconeogenic factors (lactate and pyruvate 10:1 ratio) and stimulators (cAMP) in the presence of increasing concentrations of OHP (in nM). Intracellular glucose production—a marker of de novo gluconeogenesis—was determined enzymatically (biovision glucose determination kit), as well as intracellular beta-hydroxybutyrate levels (a marker of fat oxidation) and triglycerides (substrate for fat oxidation). […] The results are depicted at FIG. 5.

AMPKinase = AMPKinase activation in HepG2 cells (Western blot of phosphorylated AMPK and ACC); assay type: cell-based; settings: HepG2, 1 hour, FIG. 2a
Source text: OHP effects on AMPKinase activation in HepG2 cells. […] (RNeasy kit, QIAGEN). OHP effects on APPL1 nuclear translocation. […] The results are presented at FIGS. 2a and 2b.

HepG2 cells [4] = assay: Fat oxidation (intracellular beta-hydroxybutyrate, triglycerides) in HepG2 cells; assay type: cell-based; settings: HepG2, FIG. 5
Experimental: as §1

[5] = listed as 11β-hydroxypregnenolone

CC(=O)C1CC[C@H]2[C@@H]3CC=C4CC(O)CC[C@]4(C)[C@H]3[C@@H](O)C[C@]12C (stereo partly drawn) [Compound 1039, 1-((8S,9S,10R,11S,13S,14S)-3,11-dihydroxy-10,13-dimethyl-2,3,4,- 7,8,9,10,11,12,13,14,15,16,17-tetradecahydro-1H-cyclopenta[a]-phenanthren-17-yl)ethanone]
mitochondrial biogenesis (complex I protein levels) [1]: causes mitochondrial biogenesis | mitochondrial biogenesis (complex I protein levels) [1, 5]: mitochondrial biogenesis | % pAMPK (AMP KINASE): 109% | mitochondrial DNA content (HepG2 cells [2]): increases the DNA content of mitochondria | mitochondrial DNA content (HepG2 cells [2]; [5]): increase of mitochondrial DNA content | hepatic gluconeogenesis (intracellular glucose production) (HepG2 cells [3]): reduces hepatic gluconeogenesis | hepatic gluconeogenesis (intracellular glucose production) (HepG2 cells [3]; [5]): reduction of hepatic gluconeogenesis | activation of AMP kinase (AMPKinase): activates AMPkinase | activation of AMP kinase (AMPKinase; [5]): activation of AMP KINASE | fat oxidation (HepG2 cells [4]): stimulates oxidation of fat | fat oxidation (HepG2 cells [4]; [5]): stimulation of fat oxidation
